Read-outs that look alike come from different tables or passages of the source.
Tests used:
[1] = test system: cocaine self-administration in rats
[2] = test system: oxycodone self-administration in rats; test: Intravenous oxycodone self-administration, fixed ratio FR3; format: in vivo, Sprague-Dawley rats; settings: for oxycodone self-administration, Mean Diff., Vehicle vs. treatment: FR3
Procedure: Animals. Adult male Sprague-Dawley rats (300-325 g at arrival) from Envigo (Indiana, USA) were used. Upon arrival, rats were single housed in standard cages with filter tops, and they were acclimated for at least 7 days before any treatment. All rats were examined and handled prior to initiation of the study. During the study, 12 h/12 h light/dark cycles were maintained. The room temperature was 21-23° C. with a relative humidity maintained at 30-70%. Water was provided ad libitum for the duration of the study.
Test Article(s) • Oxycodone (0.05 mg/kg/infusion; Sigma-Aldrich, USA) was dissolved in saline and infused at a rate of 0.1 ml/infusion. • Compound 1 (0.3, 1, and 3 mg/kg) was formulated in 10% Solutol HS15+90% (10% aqueous hydroxypropyl)-β-cyclodextrin and injected IP 30 minutes prior to test at a dose volume of 2 ml/kg. In the reinstatement study only 3 mg/kg was used. • MTEP (3-((2-Methyl-4-thiazolyl)ethynyl)pyridine; 3 mg/kg), was dissolved in saline and injected IP 30 minutes prior to testing at a dose volume of 2 ml/kg.
Apparatus. Intravenous drug self-administration took place in experimental chambers within sound-attenuating cubicles equipped with an exhaust fan (Med Associates, VT). Each chamber contains two response levers situated on one wall of the chamber. A stimulus light was located above each lever and a house light was located at the top of the opposite wall. A pellet receptacle was situated between the two levers for delivery of food pellets (Bio-Serv's Dustless Precision Pellets #F0165, 45 mg). An infusion pump mounted above each chamber delivers drug solutions via Tygon tubing connected to a single channel fluid swivel, which was mounted on a balance arm above the operant chamber. The output of the liquid swivel was attached to the externalized terminus of the intravenous catheter.
Surgery and catheter maintenance: The rats were first implanted with jugular vein catheters (Access Technologies, USA). After the surgery, catheters were flushed daily with 0.2 ml of heparin-Enrofloxacin solution to avoid clogging and to ensure smooth drug infusion. The flushing liquid was made in 50 ml volume units which contained 1500 U Heparin and 320 mg Enrofloxacin (Baytril®). The solution was stored in sterilized vials in a 4° C. refrigerator. After the rats recovered from catheterization surgery, they were food-restricted (about 15 or 20 g/day) and maintained at ˜85% of their free-feeding, age-matched control body weight throughout the study. Starting from the 3rd day of food restriction, rats were trained to press the active lever (one of the two levers) to obtain food. During the study, Methohexital sodium (Brevital®, Henry Schein Animal Health, USA) was used twice for catheter evaluation and thereby for indirect infusion confirmation. Brevital is a short-acting barbiturate that, when infused through the catheter, produces overt signs of sedation within seconds. […] The rats were first implanted with jugular vein catheters (Access Technologies, USA). After the surgery, catheters were flushed daily with 0.2 ml of heparin-Enrofloxacin solution to avoid clogging and to ensure smooth drug infusion. The flushing liquid was made in 50 ml volume units which contained 1500 U Heparin and 320 mg Enrofloxacin (Baytril®). The solution was stored in sterilized vials in a 4° C. refrigerator. After the rats recovered from catheterization surgery, they were food-restricted (about 15 or 20 g/day) and maintained at ˜85% of their free-feeding, age-matched control body weight throughout the study. Starting from the 3rd day of food restriction, rats were trained to press the active lever (one of the two levers) to obtain food. During the study, Methohexital sodium (Brevital®, Henry Schein Animal Health, USA) was used a few times for catheter evaluation and thereby for indirect infusion confirmation. Brevital is a short-acting barbiturate that, when infused through the catheter, produces overt signs of sedation within seconds. […]

[3] = 3 mg/kg IP, FR5, 1 hour session
[4] = 3 mg/kg IP 30 minutes prior to test

SMILES	cocaine self-administration, Mean Diff., Saline vs. treatment ([1]; 1 mg/kg IP 30 min before testing, FR5)	cocaine self-administration, Mean Diff., Saline vs. treatment [1, 3]	cocaine self-administration, Mean Diff., Saline vs. treatment ([1]; 10 mg/kg IP 30 min before testing, FR5)	cocaine self-administration vs saline treatment ([1]; all three doses, 1, 3 and 10 mg/kg IP)	oxycodone self-administration, Mean Diff., Vehicle vs. treatment ([2]; 0.3 mg/kg IP 30 minutes prior to test)	oxycodone self-administration, Mean Diff., Vehicle vs. treatment ([2]; 1 mg/kg IP 30 minutes prior to test)	oxycodone self-administration, Mean Diff., Vehicle vs. treatment [2, 4]	oxycodone self-administration vs vehicle ([2]; all three doses, 0.3, 1 and 3 mg/kg IP)	cocaine infusion vs saline treatment ([1]; 3 mg/kg IP)	self-administered oxycodone infusion vs vehicle treatment ([2]; 3 mg/kg IP)
N#Cc1cc(Cl)cc(-c2cc(-c3ccc(F)cn3)ncn2)c1 [Compound 1, 3-chloro-5-[6-(5-fluoropyridin-2-yl)pyrimidin-4-yl]benzonitrile]	15.73	24.3	27.07	significantly attenuate cocaine self-administration	5.438	6.283	9.483	significantly attenuated oxycodone self-administration		
Cc1nc(C#Cc2cccnc2)cs1 [MTEP, 3-((2-Methyl-4-thiazolyl)ethynyl)pyridine]		19.93					7.188		significantly decreased cocaine infusion	significantly decreased self-administered oxycodone infusion

Source: patent publication US20250249001A1, “METHODS OF TREATING SUBSTANCE USE DISORDER WITH 4-(3-CYANOPHENYL)-6-PYRIDINYLPYRIMIDINE MGLU5 NEGATIVE ALLOSTERIC MODULATORS” (Tempero Bio, Inc., priority 2022, published 2025)
